What was measured:
tumor growth = details: mice inoculated with those same cells; cited from earlier work
several tumor cell lines = details: cited from earlier work
cells = cells in vitro and in vivo; cited from earlier work
[1] = test system: mFAP transfected HEK293 cells; test: CellTiter-Blue cell viability assay; assay type: cell-based; details: 48 h
FAP = target: T1, FAP (Homo sapiens, UniProt Q12884); test: Enzyme kinetics; assay type: biochemical; details: highest concentrations tested
T1 sequence (Q12884 1-760): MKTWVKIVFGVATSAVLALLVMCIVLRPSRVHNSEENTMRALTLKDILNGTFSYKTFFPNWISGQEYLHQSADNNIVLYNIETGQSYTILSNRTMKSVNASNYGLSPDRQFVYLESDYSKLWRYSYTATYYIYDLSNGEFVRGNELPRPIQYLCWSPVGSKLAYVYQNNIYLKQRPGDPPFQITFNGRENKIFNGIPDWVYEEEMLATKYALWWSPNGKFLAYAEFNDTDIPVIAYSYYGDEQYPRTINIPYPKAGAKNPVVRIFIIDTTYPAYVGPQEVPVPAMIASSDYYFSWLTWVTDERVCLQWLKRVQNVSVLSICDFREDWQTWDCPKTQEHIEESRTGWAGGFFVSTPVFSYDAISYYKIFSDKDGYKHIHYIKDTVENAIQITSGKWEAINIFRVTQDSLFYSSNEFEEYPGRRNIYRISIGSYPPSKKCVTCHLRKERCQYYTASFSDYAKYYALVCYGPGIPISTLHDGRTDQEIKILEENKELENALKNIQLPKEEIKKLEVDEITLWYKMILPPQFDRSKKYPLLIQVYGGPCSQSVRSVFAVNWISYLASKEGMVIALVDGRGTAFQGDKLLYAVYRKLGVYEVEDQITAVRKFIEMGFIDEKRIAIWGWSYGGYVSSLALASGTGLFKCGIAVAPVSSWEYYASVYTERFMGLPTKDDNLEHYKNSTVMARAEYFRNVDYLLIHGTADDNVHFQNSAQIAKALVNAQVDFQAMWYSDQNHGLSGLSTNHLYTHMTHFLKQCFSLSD

CC(C)[C@H](N)C(=O)N1CCC[C@H]1B(O)O [Compound 20, (S)-Valinyl-(R)-boroproline]
tumor growth in vivo (tumor growth): attenuating tumor growth in vivo | cytotoxicity (several tumor cell lines): lack cytotoxicity against several tumor cell lines

CC(C)C[C@H](NC(=O)[C@H](Cc1ccccc1)NC(=O)c1cnccn1)B(O)O [bortezomib, Bortezomib]
cytotoxicity (cells): cytotoxic

C[C@@H](NC(=O)c1ccncc1)C(=O)N1CCC[C@H]1B(O)O [Compound 6, N-(Pyridine-4-carbonyl)-(R)-alaninyl-(R)-boroproline]
cytotoxicity [1]: No cytotoxicity was observed

CC(C)[C@H](NC(=O)c1cccnc1)C(=O)N1CCC[C@H]1B(O)O [Compound 22, N-(Pyridine-3-carbonyl)-(R)-valinyl-(R)-boroproline]
inhibition of FAP in kinetic analysis (FAP): does not inhibit FAP at the highest concentrations tested
